Consider three compounds from patent publication US12479847B2 (DANA-FARBER CANCER INSTITUTE, INC., priority 2019, dated 2025).

Holding throughout (assay): KINOMEscan (ScanMAX) kinase profiling
Common to all, as to assay type: binding

Experiment [1] concerns the target T1, panel of 468 kinases (Homo sapiens, UniProt Q86Z02).
T1 construct: purchased KINOMEscan (ScanMAX) service
The settings on record: HIPK1; 1 μM; read-out: % control.

The target in experiment [2] is T2, panel of 468 kinases (Homo sapiens, UniProt Q9NRH2).
T2 construct: purchased KINOMEscan (ScanMAX) service
T2 sequence (Q9NRH2 1-765): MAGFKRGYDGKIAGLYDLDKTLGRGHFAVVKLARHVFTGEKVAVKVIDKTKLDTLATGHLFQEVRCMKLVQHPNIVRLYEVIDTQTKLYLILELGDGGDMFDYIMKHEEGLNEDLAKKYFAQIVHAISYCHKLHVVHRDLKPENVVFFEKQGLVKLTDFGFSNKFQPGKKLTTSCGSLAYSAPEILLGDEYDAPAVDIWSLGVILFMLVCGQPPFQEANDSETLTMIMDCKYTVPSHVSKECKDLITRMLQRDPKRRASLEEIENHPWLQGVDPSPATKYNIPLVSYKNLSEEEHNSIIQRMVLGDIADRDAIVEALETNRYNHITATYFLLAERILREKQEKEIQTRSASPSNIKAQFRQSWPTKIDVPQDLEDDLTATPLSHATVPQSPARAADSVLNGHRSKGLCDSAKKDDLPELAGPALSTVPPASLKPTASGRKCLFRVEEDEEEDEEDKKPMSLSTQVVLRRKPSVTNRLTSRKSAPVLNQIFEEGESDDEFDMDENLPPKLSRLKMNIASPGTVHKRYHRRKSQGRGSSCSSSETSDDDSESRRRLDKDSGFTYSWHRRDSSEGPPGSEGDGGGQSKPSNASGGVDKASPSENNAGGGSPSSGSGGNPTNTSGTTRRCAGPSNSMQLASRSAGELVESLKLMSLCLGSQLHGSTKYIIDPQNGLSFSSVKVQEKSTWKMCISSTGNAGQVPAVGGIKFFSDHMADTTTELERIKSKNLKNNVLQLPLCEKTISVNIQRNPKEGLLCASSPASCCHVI
The conditions noted are these: SNRK; 1 μM; read-out: % control.

In experiment [3] the target is T3, panel of 468 kinases (Homo sapiens, UniProt P00533, DEL746-750).
T3 construct: purchased KINOMEscan (ScanMAX) service
The conditions noted are these: EGFR(E746-A750del); 1 μM; read-out: % control.

In experiment [4] the target is T4, panel of 468 kinases (Homo sapiens, UniProt Q96NX5).
T4 construct: purchased KINOMEscan (ScanMAX) service
The conditions noted are these: CAMK1G; 1 μM; read-out: % control.

The target in experiment [5] is T5, panel of 468 kinases (Homo sapiens, UniProt Q00537).
T5 construct: purchased KINOMEscan (ScanMAX) service
The conditions noted are these: PCTK2; 1 μM; read-out: % control.

Experiment [6] deals with T6, panel of 468 kinases (Homo sapiens, UniProt P11802).
T6 construct: purchased KINOMEscan (ScanMAX) service
The settings on record: 1 μM, read-out: % control.

Experiment [7] concerns the target T7, panel of 468 kinases (Homo sapiens, UniProt Q99755).
T7 construct: purchased KINOMEscan (ScanMAX) service
The conditions noted are these: PIP5K1A; 1 μM; read-out: % control.

Experiment [8] deals with T8, panel of 468 kinases (Homo sapiens, UniProt P42336, M1043I).
T8 construct: purchased KINOMEscan (ScanMAX) service
The settings on record: PIK3CA(M1043I); 1 μM; read-out: % control.

Experiment [9] has as its target T9, panel of 468 kinases (Homo sapiens, UniProt P08581, Y1235D).
T9 construct: purchased KINOMEscan (ScanMAX) service
The settings on record: MET(Y1235D); 1 μM; read-out: % control.

Like-named read-outs stand apart in the source and are kept apart here.

T8 sequence (P42336 whole entry M1043I): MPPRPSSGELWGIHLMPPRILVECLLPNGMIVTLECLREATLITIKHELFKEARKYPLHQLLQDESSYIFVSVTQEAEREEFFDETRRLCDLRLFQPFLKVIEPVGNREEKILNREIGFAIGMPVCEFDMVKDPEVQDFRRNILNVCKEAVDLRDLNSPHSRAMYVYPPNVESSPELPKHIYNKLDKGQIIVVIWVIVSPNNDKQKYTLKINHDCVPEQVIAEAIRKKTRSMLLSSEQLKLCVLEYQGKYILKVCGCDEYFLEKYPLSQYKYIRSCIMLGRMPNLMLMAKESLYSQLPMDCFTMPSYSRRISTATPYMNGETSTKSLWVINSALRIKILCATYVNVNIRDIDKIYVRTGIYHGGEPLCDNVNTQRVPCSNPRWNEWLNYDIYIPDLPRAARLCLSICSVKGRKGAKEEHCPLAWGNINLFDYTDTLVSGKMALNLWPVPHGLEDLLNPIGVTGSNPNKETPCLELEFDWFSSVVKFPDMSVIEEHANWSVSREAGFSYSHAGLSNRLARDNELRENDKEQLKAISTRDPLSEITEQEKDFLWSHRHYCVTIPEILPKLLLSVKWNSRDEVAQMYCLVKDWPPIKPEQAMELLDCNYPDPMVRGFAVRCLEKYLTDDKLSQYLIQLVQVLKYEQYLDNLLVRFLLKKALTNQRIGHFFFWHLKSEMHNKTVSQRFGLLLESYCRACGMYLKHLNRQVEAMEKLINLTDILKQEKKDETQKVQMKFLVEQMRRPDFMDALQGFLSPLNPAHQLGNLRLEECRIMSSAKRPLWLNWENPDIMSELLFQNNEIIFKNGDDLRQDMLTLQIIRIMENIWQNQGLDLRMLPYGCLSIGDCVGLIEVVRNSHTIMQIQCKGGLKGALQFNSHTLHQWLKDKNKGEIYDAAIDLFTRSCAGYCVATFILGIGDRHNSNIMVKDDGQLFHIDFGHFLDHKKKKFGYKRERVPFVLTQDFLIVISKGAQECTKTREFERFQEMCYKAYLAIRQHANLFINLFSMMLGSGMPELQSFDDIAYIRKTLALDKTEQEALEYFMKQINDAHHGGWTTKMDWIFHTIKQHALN
T7 sequence (Q99755 whole entry): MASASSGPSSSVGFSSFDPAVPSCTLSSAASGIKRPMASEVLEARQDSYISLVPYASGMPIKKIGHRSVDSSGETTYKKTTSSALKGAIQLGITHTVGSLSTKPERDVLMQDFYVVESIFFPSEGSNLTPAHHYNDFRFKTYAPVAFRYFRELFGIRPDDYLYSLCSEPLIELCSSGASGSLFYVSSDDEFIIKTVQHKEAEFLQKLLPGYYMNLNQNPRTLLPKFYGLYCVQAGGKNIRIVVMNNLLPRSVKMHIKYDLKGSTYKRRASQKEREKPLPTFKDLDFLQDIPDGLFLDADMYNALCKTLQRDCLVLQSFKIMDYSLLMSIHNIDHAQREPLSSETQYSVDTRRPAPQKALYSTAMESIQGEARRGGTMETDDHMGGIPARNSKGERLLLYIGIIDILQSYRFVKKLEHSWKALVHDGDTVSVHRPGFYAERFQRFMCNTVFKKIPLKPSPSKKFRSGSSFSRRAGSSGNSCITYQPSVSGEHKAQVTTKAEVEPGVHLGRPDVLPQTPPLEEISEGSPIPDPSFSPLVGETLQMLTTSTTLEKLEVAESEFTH
T4 sequence (Q96NX5 whole entry): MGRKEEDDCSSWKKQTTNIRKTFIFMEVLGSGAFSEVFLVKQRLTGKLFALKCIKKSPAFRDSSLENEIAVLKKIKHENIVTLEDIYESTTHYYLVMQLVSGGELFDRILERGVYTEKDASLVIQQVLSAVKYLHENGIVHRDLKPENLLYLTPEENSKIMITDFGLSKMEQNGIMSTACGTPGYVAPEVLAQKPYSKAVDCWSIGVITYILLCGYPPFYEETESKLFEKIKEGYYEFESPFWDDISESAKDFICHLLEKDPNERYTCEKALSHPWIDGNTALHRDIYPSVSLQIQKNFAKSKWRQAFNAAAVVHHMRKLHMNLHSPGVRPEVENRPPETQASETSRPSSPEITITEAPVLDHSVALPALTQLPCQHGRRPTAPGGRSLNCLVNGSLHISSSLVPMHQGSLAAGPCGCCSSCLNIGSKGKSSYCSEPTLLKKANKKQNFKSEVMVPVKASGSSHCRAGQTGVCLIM
T6 sequence (P11802 whole entry): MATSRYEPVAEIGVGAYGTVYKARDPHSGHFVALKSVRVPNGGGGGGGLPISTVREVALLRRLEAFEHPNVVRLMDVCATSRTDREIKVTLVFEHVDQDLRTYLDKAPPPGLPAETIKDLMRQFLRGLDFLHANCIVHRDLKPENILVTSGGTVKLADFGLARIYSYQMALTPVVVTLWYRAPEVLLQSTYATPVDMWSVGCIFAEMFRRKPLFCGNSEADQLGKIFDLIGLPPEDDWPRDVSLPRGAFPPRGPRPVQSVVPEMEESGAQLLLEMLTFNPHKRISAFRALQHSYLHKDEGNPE
T5 sequence (Q00537 whole entry): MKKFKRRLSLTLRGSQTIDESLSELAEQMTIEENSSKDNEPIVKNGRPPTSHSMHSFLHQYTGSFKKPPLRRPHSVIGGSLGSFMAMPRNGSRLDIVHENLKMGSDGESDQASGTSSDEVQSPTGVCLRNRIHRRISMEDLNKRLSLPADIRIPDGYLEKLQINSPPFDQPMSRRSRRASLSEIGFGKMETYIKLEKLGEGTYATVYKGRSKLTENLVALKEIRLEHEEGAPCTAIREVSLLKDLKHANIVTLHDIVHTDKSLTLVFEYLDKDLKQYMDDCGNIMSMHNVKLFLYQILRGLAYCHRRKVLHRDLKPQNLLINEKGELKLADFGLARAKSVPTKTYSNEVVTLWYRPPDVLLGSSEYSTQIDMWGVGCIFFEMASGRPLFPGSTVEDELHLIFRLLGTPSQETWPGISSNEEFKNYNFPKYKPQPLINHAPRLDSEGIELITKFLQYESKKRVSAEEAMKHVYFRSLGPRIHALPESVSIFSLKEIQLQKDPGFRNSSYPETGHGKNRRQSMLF
T1 sequence (Q86Z02 whole entry): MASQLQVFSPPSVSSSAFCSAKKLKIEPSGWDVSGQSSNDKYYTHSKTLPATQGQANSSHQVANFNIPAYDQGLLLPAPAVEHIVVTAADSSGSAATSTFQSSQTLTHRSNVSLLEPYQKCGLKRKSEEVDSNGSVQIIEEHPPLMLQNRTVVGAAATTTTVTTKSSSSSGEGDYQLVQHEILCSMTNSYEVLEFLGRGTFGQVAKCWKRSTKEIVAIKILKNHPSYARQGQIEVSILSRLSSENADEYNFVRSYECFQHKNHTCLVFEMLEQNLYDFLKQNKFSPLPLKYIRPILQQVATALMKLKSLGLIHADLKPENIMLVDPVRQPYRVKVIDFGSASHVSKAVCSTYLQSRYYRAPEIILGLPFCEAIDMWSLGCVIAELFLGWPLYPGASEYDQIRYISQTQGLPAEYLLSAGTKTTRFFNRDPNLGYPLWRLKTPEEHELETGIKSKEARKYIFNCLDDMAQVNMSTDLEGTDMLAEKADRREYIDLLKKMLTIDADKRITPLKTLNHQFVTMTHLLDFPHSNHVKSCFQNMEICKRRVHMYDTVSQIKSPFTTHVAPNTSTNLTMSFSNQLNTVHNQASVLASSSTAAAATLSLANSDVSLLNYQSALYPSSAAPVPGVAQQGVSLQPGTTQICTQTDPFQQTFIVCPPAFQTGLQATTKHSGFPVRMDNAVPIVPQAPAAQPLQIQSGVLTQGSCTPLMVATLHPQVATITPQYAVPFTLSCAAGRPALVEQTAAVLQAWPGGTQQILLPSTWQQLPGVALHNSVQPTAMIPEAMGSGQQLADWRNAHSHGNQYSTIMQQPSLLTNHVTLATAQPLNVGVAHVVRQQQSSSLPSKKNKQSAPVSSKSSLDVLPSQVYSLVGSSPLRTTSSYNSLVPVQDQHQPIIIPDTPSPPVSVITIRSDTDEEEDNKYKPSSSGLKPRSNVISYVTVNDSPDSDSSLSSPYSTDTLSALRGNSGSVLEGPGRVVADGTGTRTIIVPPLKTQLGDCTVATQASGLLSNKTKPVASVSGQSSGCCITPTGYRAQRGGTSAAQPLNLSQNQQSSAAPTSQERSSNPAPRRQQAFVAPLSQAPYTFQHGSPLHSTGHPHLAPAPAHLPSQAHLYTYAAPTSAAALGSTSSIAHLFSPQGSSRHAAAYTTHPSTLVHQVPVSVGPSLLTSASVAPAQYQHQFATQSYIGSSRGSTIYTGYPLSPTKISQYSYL

Take `CNc1nc(Nc2ccc(S(=O)(=O)N3CCC(N4CCOCC4)CC3)cc2OC)nc2[nH]cc(Cl)c12` [Compound 12, 5-chloro-N2-(2-methoxy-4-((4-morpholinopiperidin-1-yl)sulfonyl)phenyl)-N4-methyl-7H-pyrrolo[2,3-d]pyrimidine-2,4-diamine]: the remaining binding at 1 µM stood at 48% on panel of 468 kinases [1]; 91% on panel of 468 kinases [2]; 75% at panel of 468 kinases [3]; 96% on panel of 468 kinases [4]; 100% at panel of 468 kinases [5]; 74% at panel of 468 kinases [6] (CDK4-cyclinD1). In addition, the remaining binding at 1 µM at panel of 468 kinases [6] (CDK4-cyclinD3) was 100%; on panel of 468 kinases [6] (CDK4), 68%; on panel of 468 kinases [7], 100%; at panel of 468 kinases [8], 98%; on panel of 468 kinases [9], 100%.

As to `CNc1nc(Nc2ccc(P3(=O)CCN(C4CCOCC4)CC3)cc2OC)nc2[nH]cc(Cl)c12` [Compound 77, 4-(4-((5-chloro-4-(methylamino)-7H-pyrrolo[2,3-d]pyrimidin-2-yl)amino)-3-methoxyphenyl)-1-(tetrahydro-2H-pyran-4-yl)-1,4-azaphosphinane 4-oxide], the remaining binding at 1 µM is 32% on panel of 468 kinases [1]; 50% at panel of 468 kinases [2]; 87% on panel of 468 kinases [3]; 65% at panel of 468 kinases [4]; 100% at panel of 468 kinases [5]; 87% on panel of 468 kinases [6] (CDK4-cyclinD1). Besides, the remaining binding at 1 µM at panel of 468 kinases [6] (CDK4-cyclinD3) was 100%; at panel of 468 kinases [6] (CDK4), 71%; at panel of 468 kinases [7], 100%; at panel of 468 kinases [8] it was 96%; on panel of 468 kinases [9] it was 100%.

As to `CNc1nc(Nc2ccc(C(=O)N3CCC(N4CCOCC4)CC3)c3c2OCO3)nc2[nH]cc(Cl)c12` [Compound 75, (7-((5-chloro-4-(methylamino)-7H-pyrrolo[2,3-d]pyrimidin-2-yl)amino)benzo[d][1,3]dioxol-4-yl)(4-morpholinopiperidin-1-yl)methanone], the remaining binding at 1 µM amounted to 23% on panel of 468 kinases [1]; 87% at panel of 468 kinases [2]; 94% on panel of 468 kinases [3]; 73% at panel of 468 kinases [4]; 100% on panel of 468 kinases [5]; 81% on panel of 468 kinases [6] (CDK4-cyclinD1). In addition, the remaining binding at 1 µM on panel of 468 kinases [6] (CDK4-cyclinD3) is 100%; at panel of 468 kinases [6] (CDK4), 80%; on panel of 468 kinases [7], 34%; on panel of 468 kinases [8], 99%; at panel of 468 kinases [9], 100%.
